The record followed here is patent US20250188090A1, “A METHOD FOR EXTRACTION OF ALKALOID” (priority 2022, published 2025).

The data set is classed as physicochemical. The following applies: pH 9.

Regarding `COC1=CC=C2[C@H]3Cc4ccc(O)c5c4[C@@]2(CCN3C)[C@H]1O5` [oripavine], the “% in the solvent after a 1-stage extraction (corresponding to D)” value is listed as 93.3%, the “maximum D value” was 14.5 and the “single stage extraction efficiency for oripavine” value worked out at 96%.
